Results published in patent publication US5521284A, “Human cancer inhibitory pentapeptide amides and esters” (priority 1994, dated 1996).

What was measured:
[1] = test system: P388 Lymphocytic Leukemia; assay: Murine in vivo system, P388 Lymphocytic Leukemia
Source text: (§1) T/C = Test Control, both bearing tumor, expressed in time of survival.
(§2) T/C - 100 = % life extension.

[2] = test system: L1210 Lymphocytic Leukemia; assay: Murine in vivo system, L1210 Lymphocytic Leukemia; conditions: 1.63 μg/kg; time of survival
Source text: (§3) Experimental Anticancer Activity of Dolastatin 10 in
(§4) Murine in vivo Systems, T/C (μg/kg)
as §2

B16 Melanoma = assay: Murine in vivo system, B16 Melanoma; conditions: 11.11 μg/kg
Source text: as §3, §4, §2

[3] = test system: LOX Human Melanoma Xenograph; assay: LOX Human Melanoma Xenograph (Nude Mouse)
Source text: as §1, §2

Human Mammary Xenograph = Human Mammary Xenograph Nude Mouse; conditions: 26 μg/kg
Source text: as §1, §2

[4] = test system: OVCAR-3 Human Ovary Xenograph; assay: OVCAR-3 Human Ovary Xenograph Nude Mouse; format: in vivo; conditions: 40 μg/kg; time of survival
Source text: as §3, §4, §2

[5] = test system: MX-1 Human Mammary Xenograft; assay: MX-1 Human Mammary Xenograft (Tumor Regression); format: in vivo, Murine
Source text: as §3, §4, §2

OVCAR-3 = assay: NCI in vitro mini panel, Ovarian OVCAR-3; format: cell-based, Human; conditions: 48 hrs
Protocol: (§5) ED50 (P388) and GI50 (HTCL) identify the drug dose which reduces the percent tumor/cell growth to 50%. There is no mathematical difference between ED50 and GI50, both of which are calculated using the same formula. The only difference is historical usage.
(§6) TGI, means "Total Growth Inhibition", and identifies the drug dose needed to yield zero percent growth, i.e. there are just as many cells at the end of the experiment as were present at the beginning. Whether just as many cells were killed as were produced (steady state), or no growth occurred (total inhibition) cannot be distinguished.
(§7) LC50, means "Lethal Concentration 50%", and identifies the drug concentration which reduces to one-half of the cells originally present at the beginning of the experiment.
(§8) Each drug is tested at five (5) doses: 100-10-1-0.1-0.01--μg/mL. Percent Growths are calculated for each dose. The two (or three) doses with growth values above, below, (or near to) 50% growth are used to calculate the ED50 /GI50 values using a linear regression computation. If no dose yields a growth value under 50%, the results are expressed as: ED50 >(highest dose). If no dose yields growth higher than 50% growth, then ED50 <(lowest dose). Similar calculations are performed for the TGI at 0% growth, and at -50% growth for the LC50.
(§9) At the start of each experiment, cells from the in vitro cell cultures are inoculated into the appropriate tubes or microtiter plates. One set of control tubes/plates is immediately counted to determine the number of cells at the start of the experiment. This is the "baseline count", or "Tzero reading". At the end of the experiment (48 hrs later), a second set of control tubes/plates is analyzed to determine the "Control Growth" value. The growth (or death) of cells relative to the initial quantity of cells is used to define the "Percent of Growth."
(§10) For each of six cell lines, GI50, TGI, and LC50 amounts were also calculated for each of the compounds. Each compound was also tested against the PS-388 cell line and for this test an ED50 was calculated.
(§11) The protocols followed, for the NCI minipanel are, except for the number of cell lines, those established by M. R. Boyd Ph.D., and well known to those of ordinary skill in the art. The procedure followed for the test against PS-388 Leukemia is the same that was followed in the superseded NCI P-388 screening test, which is also well known to those having ordinary skill in the art.

SF-295 = assay: NCI in vitro mini panel, CNS SF-295; format: cell-based, Human; conditions: 48 hrs
Protocol: as §5, §6, §7, §8, §9, §10, §11

A498 = assay: NCI in vitro mini panel, Renal A498; format: cell-based, Human; conditions: 48 hrs
Protocol: as §5, §6, §7, §8, §9, §10, §11

NCI-H460 = assay: NCI in vitro mini panel, Lung-NSC NCI-H460; format: cell-based, Human; conditions: 48 hrs
Protocol: as §5, §6, §7, §8, §9, §10, §11

KM20L2 = assay: NCI in vitro mini panel, Colon KM20L2; format: cell-based, Human; conditions: 48 hrs
Protocol: as §5, §6, §7, §8, §9, §10, §11

SK-MEL-5 = assay: NCI in vitro mini panel, Melanoma SK-MEL-5; format: cell-based, Human; conditions: 48 hrs
Protocol: as §5, §6, §7, §8, §9, §10, §11

PS-388 = PS-388 Mouse Leukemia cell line test; format: cell-based; conditions: Mouse Leukemia PS-388
Protocol: as §5, §8, §9, §10, §11

## Dolastatin 10
[1]; 3.25 μg/kg
  cures: 17%
[1]; 6.5 μg/kg
  cures: 17%
[1]; 13.0 μg/kg
  T/C: toxic
[2]
  T/C: 120
B16 Melanoma
  cures: 40%
[3]; 3.25 μg/kg
  cures: 17%
[3]; 3.25 μg/kg, time of survival
  T/C: 170
[3]; 6.5 μg/kg
  cures: 33%
[3]; 13 μg/kg
  cures: 50%
[3]; 26 μg/kg
  cures: 67%
[3]; 52 μg/kg
  T/C: toxic
[3]; Lox in separate experiments, 43 μg/kg, time of survival
  T/C: 340
Human Mammary Xenograph
  T/C: Toxic
[4]
  T/C: 300
[5]; 6.25 μg/kg
  T/C (Tumor Regression): 69
[5]; 13 μg/kg
  T/C (Tumor Regression): 61
[5]; 26 μg/kg
  T/C (Tumor Regression): 50
[5]; 52 μg/kg
  T/C (Tumor Regression): 14

## Dov-Ie-Dil-Dap-Doe [Compound 12]
OVCAR-3
  GI-50: 0.0000000091 µg/mL
  LC-50: > 1 µg/mL
  TGI: 6e-05 ng/mL
SF-295
  GI-50: 0.000000025 µg/mL
  LC-50: > 1 µg/mL
  TGI: 0.00025 ng/mL
A498
  GI-50: 0.000000058 µg/mL
  LC-50: > 1 µg/mL
  TGI: 17 ng/mL
NCI-H460
  GI-50: 0.0000000058 µg/mL
  LC-50: > 1 µg/mL
  TGI: 6.5e-05 ng/mL
KM20L2
  GI-50: 0.0000000072 µg/mL
  LC-50: > 1 µg/mL
  TGI: 0.0001 ng/mL
SK-MEL-5
  GI-50: 0.0000000048 µg/mL
  LC-50: > 1 µg/mL
  TGI: 0.00015 ng/mL
PS-388
  ED-50: 0.0000248 µg/mL

## Dov-Val-Dil-Dap Octyl ester [Compound 16b]
OVCAR-3
  GI-50: 0.0031 µg/mL
  LC-50: > 1 µg/mL
  TGI: 40 ng/mL
SF-295
  GI-50: 0.0054 µg/mL
  LC-50: > 1 µg/mL
  TGI: > 1000 ng/mL
A498
  GI-50: 0.025 µg/mL
  LC-50: > 1 µg/mL
  TGI: 550 ng/mL
NCI-H460
  GI-50: 0.0042 µg/mL
  LC-50: > 1 µg/mL
  TGI: 58 ng/mL
KM20L2
  GI-50: 0.0017 µg/mL
  LC-50: > 1 µg/mL
  TGI: 130 ng/mL
SK-MEL-5
  GI-50: 0.0027 µg/mL
  LC-50: > 1 µg/mL
  TGI: > 1000 ng/mL
PS-388
  ED-50: 0.029 µg/mL

## Dov-Val-Dil-Dap Pentyl ester [Compound 16a]
OVCAR-3
  GI-50: 0.00052 µg/mL
  LC-50: > 1 µg/mL
  TGI: 1.1 ng/mL
SF-295
  LC-50: > 1 µg/mL
  TGI: 21 ng/mL
A498
  GI-50: < 0.0001 µg/mL
  LC-50: > 1 µg/mL
  TGI: 180 ng/mL
NCI-H460
  GI-50: 0.00034 µg/mL
  LC-50: > 1 µg/mL
  TGI: 1.1 ng/mL
KM20L2
  LC-50: > 1 µg/mL
  TGI: 13 ng/mL
SK-MEL-5
  GI-50: 0.00066 µg/mL
  LC-50: > 1 µg/mL
  TGI: 31 ng/mL
PS-388
  ED-50: 0.021 µg/mL

## Dov-Val-Dil-Dap hexylamide [Compound 16c]
OVCAR-3
  GI-50: 0.0005 µg/mL
  LC-50: > 0.01 µg/mL
  TGI: 3.9 ng/mL
SF-295
  GI-50: 0.0011 µg/mL
  LC-50: > 0.01 µg/mL
  TGI: > 10 ng/mL
A498
  GI-50: 0.0019 µg/mL
  LC-50: > 0.01 µg/mL
  TGI: > 10 ng/mL
NCI-H460
  GI-50: 0.00071 µg/mL
  LC-50: > 0.01 µg/mL
  TGI: 5.1 ng/mL
KM20L2
  GI-50: 0.00092 µg/mL
  LC-50: > 0.01 µg/mL
  TGI: 6.6 ng/mL
SK-MEL-5
  GI-50: 0.00058 µg/mL
  LC-50: > 0.01 µg/mL
  TGI: > 10 ng/mL
PS-388
  ED-50: 0.00227 µg/mL

## Dov-ile-Dil-Dap-Met-OMe [Compound 14]
OVCAR-3
  GI-50: 0.000067 µg/mL
  LC-50: > 1 µg/mL
  TGI: 0.67 ng/mL
SF-295
  GI-50: 0.00025 µg/mL
  LC-50: > 1 µg/mL
  TGI: > 1000 ng/mL
A498
  GI-50: 0.00027 µg/mL
  LC-50: > 1 µg/mL
  TGI: 35 ng/mL
NCI-H460
  GI-50: 0.00012 µg/mL
  LC-50: > 1 µg/mL
  TGI: 0.13 ng/mL
KM20L2
  GI-50: 0.000034 µg/mL
  LC-50: > 1 µg/mL
  TGI: 1.3 ng/mL
SK-MEL-5
  GI-50: 0.000044 µg/mL
  LC-50: > 1 µg/mL
  TGI: 22 ng/mL
PS-388
  ED-50: 0.00032 µg/mL
